Data taken from PubChem BioAssay (NCI).
Values joined by “and” are separate entries in the source; they are usually repeats but may differ in a detail not shown here. Identical values can stand only once.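 Grown in 96-well plates, cells were treated for 48 hours with each compound at five concentrations. Insufficient inhibition: endpoint recorded as highest concentration tested. GI50 marks 50% less growth. TGI is the concentration that stops growth completely.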

Columns and labels:
Test in all cases: NCI tumour cell line growth inhibition, 48 h
A498 renal = system: A498 renal
HOP-92 NSCLC = system: HOP-92 NSCLC
LOX IMVI melanoma = system: LOX IMVI melanoma
MOLT-4 leukemia = system: MOLT-4 leukemia
SK-MEL-5 melanoma = system: SK-MEL-5 melanoma
T-47D breast = system: T-47D breast
TK-10 renal = system: TK-10 renal

Structure (SMILES)	GI50 (A498 renal) [µM]	TGI (A498 renal) [µM]	GI50 (HOP-92 NSCLC)	TGI (HOP-92 NSCLC)	GI50 (LOX IMVI melanoma)	TGI (LOX IMVI melanoma)	GI50 (MOLT-4 leukemia) [µM]	TGI (MOLT-4 leukemia)	GI50 (SK-MEL-5 melanoma)	TGI (SK-MEL-5 melanoma)	GI50 (T-47D breast)	TGI (T-47D breast)	GI50 (TK-10 renal) [µM]	TGI (TK-10 renal)
O=C(O[C@H]1CN[C@H](C#Cc2cc3ncnc(Nc4ccc5c(ccn5Cc5cc(F)ccc5F)c4)c3s2)C1)N1CCOCC1	0.765	5.2	0.357 µM	3.9 µM	3.5 µM	9.28 µM	6.1	> 25 µM	2.95 µM	6.13 µM	0.206 µM	7.1 µM	0.0724	1.93 µM
Cc1ccccc1NC(=O)N/C(N)=N/c1nc(-c2cccc([N+](=O)[O-])c2)cs1	2.39	7.69	2.15 µM	6.6 µM	1.79 µM	5.17 µM	3.39	> 100 µM	1.88 µM	5.15 µM	3.2 µM	> 100 µM	5.33	14.6 µM
NOCC(=O)O	> 100	> 100	–	–	> 100 µM	> 100 µM	> 100	> 100 µM	> 100 µM	> 100 µM	> 100 µM	> 100 µM	> 100	> 100 µM
O=C1c2ccccc2-c2c1c1ccccc1c(=O)n2CCCNCCCn1ccnc1	2.05	7.83	0.95 µM	7.57 µM	0.45 µM	1.78 µM	0.0267	0.358 µM	0.379 µM	1.68 µM	5.78 µM	21.1 µM	1.89	9.73 µM
O=[N+]([O-])c1cc(Cl)c(Cl)c([N+](=O)[O-])c1Cl	6.4	20.9	1.92 µM	3.76 µM	0.299 µM	1.11 µM	0.436	5.42 µM	1.73 µM	3.47 µM	–	–	1.53	2.99 µM
CC(=O)CC(=O)Nc1ccc2ccccc2c1	–	> 100	–	> 100 µM	–	> 100 µM	–	> 100 µM	–	> 100 µM	–	> 100 µM	–	> 100 µM
Cc1cc(C)c([O-])c(CN(C)CCN(C)Cc2cc(C)cc(C)c2[O-])c1.O=C([O-])c1cccc(C(=O)[O-])n1.[Ti+4]	3.72	> 100	2.51 µM	6.47 µM	–	–	3.12	> 100 µM	2.9 µM	> 100 µM	1.28 µM	> 100 µM	1.71	5.47 µM
O=c1ccn(C2OC(CO)C(O)C2F)c(=O)[nH]1 (stereo unspecified)	> 1000	> 1000	> 1000 µM	> 1000 µM	> 1000 µM	> 1000 µM	> 1000	> 1000 µM	> 1000 µM	> 1000 µM	> 1000 µM	> 1000 µM	> 1000	> 1000 µM
CC[C@H](NC(=O)[C@H](C)NC)C(=O)N1C[C@@H](O)C[C@H]1Cc1c(-c2[nH]c3cc(F)ccc3c2C[C@@H]2C[C@H](O)CN2C(=O)[C@H](CC)NC(=O)[C@H](C)NC)[nH]c2cc(F)ccc12	> 100	> 100	7.7 µM	40.8 µM	> 59.6 µM	> 100 µM	74.4	> 100 µM	26.2 µM	> 53.8 µM	> 100 µM	> 100 µM	> 100	> 100 µM
CC(=O)[O-].CC(=O)[O-].[Pt+2].c1cscn1.c1cscn1	> 100	> 100	> 100 µM	> 100 µM	65.7 µM	> 100 µM	36.1	> 100 µM	> 100 µM	> 100 µM	62 µM	> 100 µM	> 100	> 100 µM
Nc1c(C(=O)c2ccc(Cl)cc2)sc(Nc2ccccc2)c1-c1nc2ccccc2s1	3.67	19.1	0.777 µM	4.7 µM	3.25 µM	> 100 µM	12.3	> 89.6 µM	16.6 µM	> 100 µM	1.46 µM	> 100 µM	2.13	> 21.4 µM
COC(=O)c1cc2c(cc1Cl)SC(N(N(C)C)S(=O)(=O)c1ccc(Br)s1)=NS2(=O)=O	28.8	80.1	18.5 µM	36.7 µM	17.5 µM	31.8 µM	15.5	36.1 µM	15.8 µM	29.4 µM	12.8 µM	43.1 µM	29.7	82.1 µM
O=C1c2ccccc2C(=O)N1CCCSc1ccccc1	–	> 100	–	> 100 µM	–	> 100 µM	–	> 100 µM	–	> 100 µM	–	> 100 µM	–	> 100 µM
CO[C@@H]1/C=C\C=C(/C)C(=O)NC2=CC(=O)C(NCCN(C)C)=C(C[C@@H](C)C[C@@H](OC)[C@@H](O)[C@H](C)/C=C(\C)[C@H]1OC(N)=O)C2=O	–	28.3	0.966 µM and 0.175 µM	11.7 µM and 2.1 µM	< 0.013 µM	0.379 µM	0.0444	1.02 µM and 8.39 µM	< 0.01 µM and 0.0238 µM	3.12 µM and 1.12 µM	0.03 µM and 0.0574 µM	3.31 µM and 4.48 µM	–	24 µM and 34.7 µM
Cn1ccnc1CC(C)(O)c1ccccc1 (stereo unspecified)	–	> 100	–	> 100 µM	–	> 100 µM	–	–	–	> 100 µM	–	–	–	> 100 µM
CN[C@@H](C)C(=O)N[C@H](C(=O)N1CCC[C@H]1C(=O)N[C@H]1c2ccccc2C[C@H]1OCC#CC#CCO[C@@H]1Cc2ccccc2[C@@H]1NC(=O)[C@@H]1CCCN1C(=O)[C@@H](NC(=O)[C@H](C)NC)C1CCCCC1)C1CCCCC1	8.8	25.1	0.479 µM	2.48 µM	1.7 µM	3.38 µM	1.92	4.57 µM	2.37 µM	13.7 µM	1.81 µM	4.39 µM	19.7	35.6 µM
CC(=O)N[C@H]1C=C[C@@H]2/C=C(C)/C=C/[C@@H](C)[C@H]([C@H](C)[C@H](O)[C@@H](C)NC(C)=O)OC(=O)/C=C/C=C(C)\C=C\[C@]2(C)C1	0.0045	0.0181	0.00954 µM and 0.0045 µM	–	0.00734 µM and < 0.0045 µM	0.016 µM and < 0.0045 µM	11	> 45 µM	0.00896 µM and 0.0045 µM	0.0458 µM and 0.00824 µM	0.0131 µM and 0.0045 µM	4.65 µM and 5.18 µM	0.00805	44.6 µM
